Data on 20 compounds can be found in patent US11787780B2 (CORCEPT THERAPEUTICS INCORPORATED, priority 2020, dated 2023).

For experiment [1], the system named is induction of TAT by dexamethasone in HepG2 cells. The experiment in a line: Hep G2 TAT assay (inhibition of dexamethasone-induced TAT). The conditions noted are these: agonist induction of TAT, read-out: average EC50 value (half-maximal effect) of TAT production. Type of experiment: cell-based, human.
Experiment [2] addresses glucocorticoid receptor (GR) recombinant ligand binding domain (LBD) (Homo sapiens (Human), UniProt P04150). Briefly: GR binding fluorescence polarisation (FP) assay. The conditions noted are these: displacement of fluorescently tagged ligand. The procedure: Binding of test compounds to the glucocorticoid receptor (GR) is determined using a fluorescence polarisation (FP) assay utilising a recombinant ligand binding domain (LBD) of GR. The test compounds are assessed by their ability to displace a fluorescently tagged ligand and detection of the resulting decrease in fluorescence polarisation.

The subject of experiment [3] is induction of TAT by dexamethasone in HepG2 cells. Briefly: Hep G2 TAT assay (inhibition of dexamethasone-induced TAT). The conditions noted are these: challenge of 100 nM dexamethasone, IC50 converted to Ki by Cheng and Prusoff equation. Type of experiment: cell-based, human.

Sequence of glucocorticoid receptor (GR) recombinant ligand binding domain (LBD) (P04150 524-758): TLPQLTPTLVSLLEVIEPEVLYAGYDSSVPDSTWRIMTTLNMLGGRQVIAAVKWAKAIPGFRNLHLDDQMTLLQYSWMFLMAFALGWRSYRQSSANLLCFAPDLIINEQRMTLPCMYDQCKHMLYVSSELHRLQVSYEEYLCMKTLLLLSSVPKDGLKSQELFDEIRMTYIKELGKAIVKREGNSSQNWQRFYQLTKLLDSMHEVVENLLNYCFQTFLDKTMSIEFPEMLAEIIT

With `C[C@@H]1C[C@H]2[C@@H]3CCC4=CC(=O)C=C[C@]4(C)[C@@]3(F)[C@@H](O)C[C@]2(C)[C@@]1(O)C(=O)CO` [Dexamethasone, dexamethasone], the EC50 in experiment [1] amounted to 20 nM. In the case of `Cc1cc2c(cnn2-c2ccc(=O)n(C)c2)cc1C1(Cc2ccccc2)CCN(S(=O)(=O)c2cccc(F)c2F)C1` (stereo not drawn) [Example 317, 5-(5-(3-benzyl-1-((2,3-difluorophenyl)sulfonyl)pyrrolidin-3-yl)-6-methyl-1H-indazol-1-yl)-1-methylpyridin-2(1H)-one], in experiment [2], the IC50 was 8.9 nM. For the same compound, in experiment [3], the Ki is 23 nM.

With `CCCn1cc(S(=O)(=O)N2CCC(Cc3ccccc3)(c3cc4cnn(-c5ccc(=O)n(C)c5)c4cc3C)C2)cn1` (stereo not drawn) [Example 318, 5-(5-(3-benzyl-1-((1-propyl-1H-pyrazol-4-yl)sulfonyl)pyrrolidin-3-yl)-6-methyl-1H-indazol-1-yl)-1-methylpyridin-2(1H)-one], the IC50 in experiment [2] was found to be 5.1 nM. The inhibition constant Ki in experiment [3] is 48 nM. Turning to `COc1cc2c(cnn2-c2ccc(=O)n(C)c2)cc1C1(Cc2ccccc2)CCN(S(=O)(=O)C2CC2)C1` (stereo not drawn) [Example 321], the IC50 in experiment [2] came out at 14 nM. In experiment [3], this compound yielded a Ki of 270 nM. `Cc1ncc(S(=O)(=O)N2CCC(Cc3ccccc3)(c3cc4cnn(-c5ccc(=O)n(C)c5)c4cc3C)C2)cn1` (stereo not drawn) [Example 322, 5-(5-(3-benzyl-1-((2-methylpyrimidin-5-yl)sulfonyl)pyrrolidin-3-yl)-6-methyl-1H-indazol-1-yl)-1-methylpyridin-2(1H)-one]: the IC50 in experiment [2] worked out at 24 nM. The affinity in experiment [3] corresponds to a Ki of 77 nM. As for `Cc1cc2c(cnn2-c2ccc(=O)n(C)c2)cc1C1(Cc2ccc(F)cc2)CCN(S(=O)(=O)c2cnn(C)c2)C1` (stereo not drawn) [Example 323, 5-(5-(3-(4-fluorobenzyl)-1-((1-methyl-1H-pyrazol-4-yl)sulfonyl)pyrrolidin-3-yl)-6-methyl-1H-indazol-1-yl)-1-methylpyridin-2(1H)-one], the IC50 in experiment [2] turned out to be 12 nM. The compound also had a Ki in experiment [3] of 97 nM. With `Cc1cc2c(cnn2-c2ccc(=O)n(C)c2)cc1C1(Cc2ccc(F)cc2)CCN(S(=O)(=O)c2cnn(C)n2)C1` (stereo not drawn) [Example 324, 5-(5-(3-(4-fluorobenzyl)-1-((2-methyl-2H-1,2,3-triazol-4-yl)sulfonyl)pyrrolidin-3-yl)-6-methyl-1H-indazol-1-yl)-1-methylpyridin-2(1H)-one], in experiment [2], the IC50 was 7.5 nM. Further, the Ki in experiment [3] is 64 nM. In the same order, the values of `CC(=O)N1CCC(S(=O)(=O)N2CCC(Cc3ccccc3)(c3cc4cnn(-c5ccc(F)cc5)c4cc3C)C2)CC1` (stereo not drawn) [Example 325, 1-(4-((3-benzyl-3-(1-(4-fluorophenyl)-6-methyl-1H-indazol-5-yl)pyrrolidin-1-yl)sulfonyl)piperidin-1-yl)ethan-1-one] are 28 nM and 110 nM. For `Cc1cc2c(cnn2-c2ccc(=O)n(C)c2)cc1C1(Cc2ccccc2)CCN(C(=O)c2ccccc2)C1` (stereo not drawn) [Example 326, 5-(5-(1-benzoyl-3-benzylpyrrolidin-3-yl)-6-methyl-1H-indazol-1-yl)-1-methylpyridin-2(1H)-one], the IC50 in experiment [2] turned out to be 44 nM. Moreover, in experiment [3], affinity was put at a Ki of 57 nM. For the compound `Cc1cc2c(cnn2-c2ccc(=O)n(C)c2)cc1C1(Cc2ccccc2)CCN(C(=O)c2ccnnc2)C1` (stereo not drawn) [Example 327, 5-(5-(3-benzyl-1-(pyridazine-4-carbonyl)pyrrolidin-3-yl)-6-methyl-1H-indazol-1-yl)-1-methylpyridin-2(1H)-one], the IC50 in experiment [2] amounted to 170 nM. Besides, the Ki in experiment [3] is 540 nM. With `Cc1cc2c(cnn2-c2ccc(=O)n(C)c2)cc1C1(Cc2ccccc2)CCN(C(=O)C(C)(F)F)C1` (stereo not drawn) [Example 328, 5-(5-(3-benzyl-1-(2,2-difluoropropanoyl)pyrrolidin-3-yl)-6-methyl-1H-indazol-1-yl)-1-methylpyridin-2(1H)-one], the IC50 in experiment [2] was determined as 18 nM. Also, the Ki in experiment [3] came to 110 nM. For the compound `Cc1cc2c(cnn2-c2ccc(=O)n(C)c2)cc1C1(Cc2ccccc2)CCN(C(=O)c2ccsc2)C1` (stereo not drawn) [Example 329, 5-(5-(3-benzyl-1-(thiophene-3-carbonyl)pyrrolidin-3-yl)-6-methyl-1H-indazol-1-yl)-1-methylpyridin-2(1H)-one], the IC50 in experiment [2] turned out to be 10 nM. In addition, in experiment [3], the affinity, expressed as Ki, was 140 nM.

In the case of `Cc1cc2c(cnn2-c2ccc(=O)n(C)c2)cc1C1(Cc2ccccc2)CCN(C(=O)C2(C(F)(F)F)CC2)C1` (stereo not drawn) [Example 330, 5-(5-(3-benzyl-1-(1-(trifluoromethyl)cyclopropane-1-carbonyl)pyrrolidin-3-yl)-6-methyl-1H-indazol-1-yl)-1-methylpyridin-2(1H)-one], the IC50 in experiment [2] amounted to 16 nM. This compound gave a Ki in experiment [3] of 200 nM. With `Cc1cc2c(cnn2-c2ccc(=O)n(C)c2)cc1C1(Cc2ccccc2)CCN(C(=O)C2CC2C)C1` (stereo not drawn) [Example 331, 5-(5-(3-benzyl-1-(2-methylcyclopropane-1-carbonyl)pyrrolidin-3-yl)-6-methyl-1H-indazol-1-yl)-1-methylpyridin-2(1H)-one], the IC50 in experiment [2] turned out to be 15 nM. For the same compound, in experiment [3], the Ki is 100 nM. As to `Cc1cc2c(cnn2-c2ccc(=O)n(C)c2)cc1C1(Cc2ccccc2)CCN(C(=O)C2CC2)C1` (stereo not drawn) [Example 332, 5-(5-(3-benzyl-1-(cyclopropanecarbonyl)pyrrolidin-3-yl)-6-methyl-1H-indazol-1-yl)-1-methylpyridin-2(1H)-one], the IC50 in experiment [2] was 20 nM. Moreover, the affinity in experiment [3] corresponds to a Ki of 160 nM.

As to `Cc1cc2c(cnn2-c2ccc(=O)n(C)c2)cc1C1(Cc2ccccc2)CN(S(=O)(=O)c2cnn(C)n2)CC1C` (stereo not drawn) [Example 335, 5-(5-(3-benzyl-4-methyl-1-((2-methyl-2H-1,2,3-triazol-4-yl)sulfonyl)pyrrolidin-3-yl)-6-methyl-1H-indazol-1-yl)-1-methylpyridin-2(1H)-one], in experiment [2], the IC50 came to 11 nM. For the same compound, in experiment [3], the Ki was 46 nM.

Turning to `Cc1cc2c(cnn2-c2ccc(F)cc2)cc1C1(Cc2ccccc2)CCN(Cc2ccccc2)C1=O` (stereo not drawn) [Example 337, 1,3-dibenzyl-3-(1-(4-fluorophenyl)-6-methyl-1H-indazol-5-yl)pyrrolidin-2-one], the IC50 in experiment [2] was determined as 250 nM. In experiment [3], this compound had a Ki of 110 nM. As for `CS(=O)(=O)N1CCC(Cc2ccccc2)(c2ccc3c(cnn3-c3ccc(F)cc3)c2)C1=O` (stereo not drawn) [Example 338, 3-benzyl-3-(1-(4-fluorophenyl)-1H-indazol-5-yl)-1-(methylsulfonyl)pyrrolidin-2-one], in experiment [2], the IC50 was 26 nM. For the same compound, the Ki in experiment [3] was 120 nM.

Regarding `Cc1cc2c(cnn2-c2ccc(F)cc2)cc1C1(Cc2ccccc2)CCN(S(C)(=O)=O)C1=O` (stereo not drawn) [Example 339, 3-benzyl-3-(1-(4-fluorophenyl)-6-methyl-1H-indazol-5-yl)-1-(methylsulfonyl)pyrrolidin-2-one], the IC50 in experiment [2] stood at 44 nM. The compound also gave a Ki in experiment [3] of 120 nM. With `COCC1(c2cc3cnn(-c4ccc(F)cc4)c3cc2C)CCN(S(=O)(=O)c2cnn(C)c2)C1` (stereo not drawn) [Example 340, 1-(4-fluorophenyl)-5-(3-(methoxymethyl)-1-((1-methyl-1H-pyrazol-4-yl)sulfonyl)pyrrolidin-3-yl)-6-methyl-1H-indazole], the IC50 in experiment [2] came to 57 nM. In experiment [3], this compound registered a Ki of 820 nM.
